Our source for the IC50 values is patent US9579314B2 (priority 2015, dated 2017).

One assay deals with Human β2 adrenoceptor (Homo sapiens, UniProt P07550). To be noted: read-out: B2 binding affinity.
The next assay has as its target Human M3 receptor (Homo sapiens, UniProt P20309). To be noted: read-out: M3 binding affinity.

Molecules are shown by their SMILES.

Chain of Human M3 receptor (P20309 whole entry): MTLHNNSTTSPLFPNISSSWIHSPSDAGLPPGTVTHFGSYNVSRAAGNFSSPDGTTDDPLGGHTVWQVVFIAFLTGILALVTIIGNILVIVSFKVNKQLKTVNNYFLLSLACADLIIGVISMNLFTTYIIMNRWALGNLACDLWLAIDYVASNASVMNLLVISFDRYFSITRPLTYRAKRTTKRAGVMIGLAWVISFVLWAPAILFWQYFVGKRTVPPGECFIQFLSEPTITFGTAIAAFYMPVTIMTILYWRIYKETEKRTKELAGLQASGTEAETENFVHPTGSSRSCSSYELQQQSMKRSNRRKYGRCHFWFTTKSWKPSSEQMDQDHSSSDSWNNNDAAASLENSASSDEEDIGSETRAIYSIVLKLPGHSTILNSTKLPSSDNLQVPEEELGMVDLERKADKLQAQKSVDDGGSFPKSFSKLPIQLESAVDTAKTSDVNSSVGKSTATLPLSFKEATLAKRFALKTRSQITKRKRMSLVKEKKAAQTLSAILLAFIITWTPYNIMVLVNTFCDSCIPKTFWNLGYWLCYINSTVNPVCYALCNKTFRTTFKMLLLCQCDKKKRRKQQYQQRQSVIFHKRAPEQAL
Chain of Human β2 adrenoceptor (P07550 whole entry): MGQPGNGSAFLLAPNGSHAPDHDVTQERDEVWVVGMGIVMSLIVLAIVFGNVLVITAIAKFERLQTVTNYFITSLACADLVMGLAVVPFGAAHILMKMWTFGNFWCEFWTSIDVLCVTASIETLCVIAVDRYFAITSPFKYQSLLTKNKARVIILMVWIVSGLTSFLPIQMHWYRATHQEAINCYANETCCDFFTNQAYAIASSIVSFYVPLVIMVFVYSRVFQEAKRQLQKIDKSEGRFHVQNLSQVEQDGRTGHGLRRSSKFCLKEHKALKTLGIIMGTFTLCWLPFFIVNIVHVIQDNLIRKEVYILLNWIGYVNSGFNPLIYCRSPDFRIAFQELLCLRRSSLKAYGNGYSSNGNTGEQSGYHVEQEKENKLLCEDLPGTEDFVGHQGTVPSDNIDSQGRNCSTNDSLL

On to `O=C(NCCCNC[C@H](O)c1ccc(O)c2[nH]c(=O)ccc12)c1ccc(COc2cccc([C@@](O)(C(=O)OCC3CCN(Cc4ccccc4)CC3)c3ccccc3)c2)cc1` [Compound 44, (R)-(1-Benzylpiperidin-4-yl)methyl 2-hydroxy-2-(3-((4-((3-(((R)-2-hydroxy-2-(8-hydroxy-2-oxo-1,2-dihydroquinolin-5-yl)ethyl)amino)propyl)carbamoyl)benzyl)oxy)phenyl)-2-phenylacetate], for which the IC50 on Human β2 adrenoceptor was under 0.3 nM; on Human M3 receptor, 0.3 to 3 nM.
For `CC(C)Oc1cc(C(=O)NCCCOc2cccc([C@](O)(C(=O)OCC3CCN(Cc4ccccc4)CC3)c3ccccc3)c2)ccc1CNC[C@H](O)c1ccc(O)c2[nH]c(=O)ccc12` [Compound 32G, (S)-(1-benzylpiperidin-4-yl)methyl 2-hydroxy-2-(3-(3-(4-((((R)-2-hydroxy-2-(8-hydroxy-2-oxo-1,2-dihydroquinolin-5-yl)ethyl)amino)methyl)-3-isopropoxybenzamido)propoxy)phenyl)-2-phenylacetate] the same measures were 0.3 to 3 nM and 0.3 to 3 nM.
In the case of `CC(C)Oc1cc(C(=O)N[C@H]2C[C@H](NC(=O)COc3cccc([C@](O)(C(=O)OCC4CCN(Cc5ccccc5)CC4)c4ccccc4)c3)C2)ccc1CNC[C@H](O)c1ccc(O)c2[nH]c(=O)ccc12` [Compound 143, (1-benzylpiperidin-4-yl)methyl (S)-2-hydroxy-2-(3-(2-(((1R,3S)-3-(4-((((R)-2-hydroxy-2-(8-hydroxy-2-oxo-1,2-dihydroquinolin-5-yl)ethyl)amino)methyl)-3-isopropoxybenzamido)cyclobutyl)amino)-2-oxoethoxy)phenyl)-2-phenylacetate], the IC50 at Human β2 adrenoceptor and on Human M3 receptor was 0.3 to 3 nM each time.
In the case of `CCOc1cc(C(=O)NCCCOc2cccc([C@](O)(C(=O)OCC3CCN(Cc4ccccc4)CC3)c3ccccc3)c2)ccc1CNC[C@H](O)c1ccc(O)c2[nH]c(=O)ccc12` [Compound 32D, (S)-(1-benzylpiperidin-4-yl)methyl 2-(3-(3-(3-ethoxy-4-((((R)-2-hydroxy-2-(8-hydroxy-2-oxo-1,2-dihydroquinolin-5-yl)ethyl)amino)methyl)benzamido)propoxy)phenyl)-2-hydroxy-2-phenylacetate], the IC50 at Human β2 adrenoceptor is under 0.3 nM; at Human M3 receptor, 0.3 to 3 nM.
`COc1cc(C(=O)NCc2ccc(COc3cccc([C@](O)(C(=O)OCC4CCN(Cc5ccccc5)CC4)c4ccccc4)c3)cc2)ccc1CNC[C@H](O)c1ccc(O)c2[nH]c(=O)ccc12` [Compound 42F, (1-benzylpiperidin-4-yl)methyl (S)-2-hydroxy-2-(3-((4-((4-((((R)-2-hydroxy-2-(8-hydroxy-2-oxo-1,2-dihydroquinolin-5-yl)ethyl)amino)methyl)-3-methoxybenzamido)methyl)benzyl)oxy)phenyl)-2-phenylacetate]: the IC50 is under 0.3 nM at Human β2 adrenoceptor and 0.3 to 3 nM on Human M3 receptor.
On the same counts, the results for `O=C(COc1cccc([C@](O)(C(=O)OCC2CCN(Cc3ccccc3)CC2)c2ccccc2)c1)N[C@H]1CCCN(C(=O)c2ccc(CNC[C@H](O)c3ccc(O)c4[nH]c(=O)ccc34)cc2)C1` [Compound 69, (1-benzylpiperidin-4-yl)methyl (S)-2-hydroxy-2-(3-(2-(((S)-1-(4-((((R)-2-hydroxy-2-(8-hydroxy-2-oxo-1,2-dihydroquinolin-5-yl)ethyl)amino)methyl)benzoyl)piperidin-3-yl)amino)-2-oxoethoxy)phenyl)-2-phenylacetate] are 0.3 to 3 nM and 0.3 to 3 nM.
Regarding `O=C(COc1cccc([C@](O)(C(=O)OCC2CCN(Cc3ccccc3)CC2)c2ccccc2)c1)N[C@H]1C[C@H](NC(=O)c2ccc(CNC[C@H](O)c3ccc(O)c4[nH]c(=O)ccc34)nc2)C1` [Compound 145, (1-benzylpiperidin-4-yl)methyl (S)-2-hydroxy-2-(3-(2-(((1R,3S)-3-(6-((((R)-2-hydroxy-2-(8-hydroxy-2-oxo-1,2-dihydroquinolin-5-yl)ethyl)amino)methyl)nicotinamido)cyclobutyl)amino)-2-oxoethoxy)phenyl)-2-phenylacetate], the IC50 on Human β2 adrenoceptor and at Human M3 receptor was 0.3 to 3 nM each time.
In the case of `O=C(COc1cccc([C@](O)(C(=O)OCC2CCN(Cc3ccccc3)CC2)c2ccccc2)c1)N[C@H]1C[C@H](NC(=O)c2ccc(CNC[C@H](O)c3ccc(O)c4[nH]c(=O)ccc34)c(F)c2F)C1` [Compound 134, (1-benzylpiperidin-4-yl)methyl (S)-2-(3-(2-(((1R,3S)-3-(2,3-difluoro-4-((((R)-2-hydroxy-2-(8-hydroxy-2-oxo-1,2-dihydroquinolin-5-yl)ethyl)amino)methyl)benzamido)cyclobutyl)amino)-2-oxoethoxy)phenyl)-2-hydroxy-2-phenylacetate], the IC50 on Human β2 adrenoceptor is under 0.3 nM; at Human M3 receptor it was 0.3 to 3 nM.
`O=C(N[C@H]1C[C@H](NC(=O)c2ccc(COc3cccc([C@](O)(C(=O)OCC4CCN(Cc5ccccc5)CC4)c4ccccc4)c3)cc2)C1)c1ccc(CCNC[C@H](O)c2ccc(O)c3[nH]c(=O)ccc23)cc1` [Compound 114, (1-Benzylpiperidin-4-yl)methyl (S)-2-hydroxy-2-(3-((4-(((1R,3S)-3-(4-(2-(((R)-2-hydroxy-2-(8-hydroxy-2-oxo-1,2-dihydroquinolin-5-yl)ethyl)amino)-ethyl)benzamido)cyclobutyl)carbamoyl)benzyl)oxy)phenyl)-2-phenylacetate]: the IC50 on Human β2 adrenoceptor and at Human M3 receptor was 0.3 to 3 nM in each case.
As for `O=C(COc1cccc([C@](O)(C(=O)OCC2CCN(Cc3ccccc3)CC2)c2ccccc2)c1)NC1CN(C(=O)c2ccc(CNC[C@H](O)c3ccc(O)c4[nH]c(=O)ccc34)cc2)C1` [Compound 66, (1-benzylpiperidin-4-yl)methyl (S)-2-hydroxy-2-(3-(2-((1-(4-((((R)-2-hydroxy-2-(8-hydroxy-2-oxo-1,2-dihydroquinolin-5-yl)ethyl)amino)methyl)benzoyl)azetidin-3-yl)amino)-2-oxoethoxy)phenyl)-2-phenylacetate], the IC50 on Human β2 adrenoceptor was under 0.3 nM; on Human M3 receptor, 0.3 to 3 nM.
For `O=C(COc1cccc([C@](O)(C(=O)OCC2CCN(Cc3ccccc3)CC2)c2ccccc2)c1)N[C@H]1C[C@H](NC(=O)c2ccc(CNC[C@H](O)c3ccc(O)c4[nH]c(=O)ccc34)c(Cl)c2)C1` [Compound 135, (1-benzylpiperidin-4-yl)methyl (S)-2-(3-(2-(((1R,3S)-3-(3-chloro-4-((((R)-2-hydroxy-2-(8-hydroxy-2-oxo-1,2-dihydroquinolin-5-yl)ethyl)amino)methyl)benzamido)cyclobutyl)amino)-2-oxoethoxy)phenyl)-2-hydroxy-2-phenylacetate] the same measures were under 0.3 nM and 0.3 to 3 nM.
For the compound `O=C(c1ccc(COc2cccc([C@](O)(C(=O)OCC3CCN(Cc4ccccc4)CC3)c3ccccc3)c2)cc1)N1CCC(CNC[C@H](O)c2ccc(O)c3[nH]c(=O)ccc23)CC1` [Compound 33, (S)-(1-benzylpiperidin-4-yl)methyl 2-hydroxy-2-(3-((4-(4-((((R)-2-hydroxy-2-(8-hydroxy-2-oxo-1,2-dihydroquinolin-5-yl)ethyl)amino)methyl)-piperidine-1-carbonyl)benzyl)oxy)phenyl)-2-phenylacetate], the IC50 at Human β2 adrenoceptor and at Human M3 receptor was under 0.3 nM each time.
As for `O=C(c1ccc(CCNC[C@H](O)c2ccc(O)c3[nH]c(=O)ccc23)cc1)N1CCC2(CCCN(C(=O)c3ccc(COc4cccc([C@](O)(C(=O)OCC5CCN(Cc6ccccc6)CC5)c5ccccc5)c4)cc3)C2)CC1` [Compound 122, (1-benzylpiperidin-4-yl)methyl (S)-2-hydroxy-2-(3-((4-(9-(4-(2-(((R)-2-hydroxy-2-(8-hydroxy-2-oxo-1,2-dihydroquinolin-5-yl)ethyl)amino)ethyl)benzoyl)-2,9-diazaspiro[5.5]undecane-2-carbonyl)benzyl)oxy)phenyl)-2-phenylacetate], the IC50 is over 3 nM at Human β2 adrenoceptor and 0.3 to 3 nM at Human M3 receptor.
As for `COc1cc(C(=O)N[C@H]2C[C@H](NC(=O)c3ccc(COc4cccc([C@](O)(C(=O)OCC5CCN(Cc6ccccc6)CC5)c5ccccc5)c4)cc3)C2)ccc1CNC[C@H](O)c1ccc(O)c2[nH]c(=O)ccc12` [Compound 124, (1-benzylpiperidin-4-yl)methyl (S)-2-hydroxy-2-(3-((4-(((1R,3S)-3-(4-((((R)-2-hydroxy-2-(8-hydroxy-2-oxo-1,2-dihydroquinolin-5-yl)ethyl)amino)methyl)-3-methoxybenzamido)cyclobutyl)carbamoyl)benzyl)oxy)phenyl)-2-phenylacetate], the IC50 at Human β2 adrenoceptor and at Human M3 receptor was 0.3 to 3 nM throughout.
On to `O=C(NCCCOc1cccc([C@](O)(C(=O)OCC2CCN(Cc3ccccc3)CC2)c2ccccc2)c1)c1ccc(CCNC[C@H](O)c2ccc(O)c3[nH]c(=O)ccc23)cc1` [Compound 37, (S)-(1-benzylpiperidin-4-yl)methyl 2-hydroxy-2-(3-(3-(4-(2-(((R)-2-hydroxy-2-(8-hydroxy-2-oxo-1,2-dihydroquinolin-5-yl)ethyl)amino)ethyl)benzamido)propoxy)phenyl)-2-phenylacetate], for which the IC50 at Human β2 adrenoceptor and at Human M3 receptor was under 0.3 nM throughout.
Take `COc1cc(CNC[C@H](O)c2ccc(O)c3[nH]c(=O)ccc23)ccc1C(=O)NCC(=O)N1CCC(COc2cccc([C@](O)(C(=O)OCC3CCN(Cc4ccccc4)CC3)c3ccccc3)c2)CC1` [Compound 155, (1-benzylpiperidin-4-yl)methyl (S)-2-hydroxy-2-(3-((1-((4-((((R)-2-hydroxy-2-(8-hydroxy-2-oxo-1,2-dihydroquinolin-5-yl)ethyl)amino)methyl)-2-methoxybenzoyl)glycyl)piperidin-4-yl)methoxy)phenyl)-2-phenylacetate]: the values for the IC50 on Human β2 adrenoceptor and at Human M3 receptor were under 0.3 nM and 0.3 to 3 nM, respectively.
On the same counts, the results for `O=C(N[C@@H]1CCN(C(=O)COc2cccc([C@](O)(C(=O)OCC3CCN(Cc4ccccc4)CC3)c3ccccc3)c2)C1)c1ccc(CNC[C@H](O)c2ccc(O)c3[nH]c(=O)ccc23)cc1` [Compound 76, (1-benzylpiperidin-4-yl)methyl (S)-2-hydroxy-2-(3-(2-((R)-3-(4-((((R)-2-hydroxy-2-(8-hydroxy-2-oxo-1,2-dihydroquinolin-5-yl)ethyl)amino)methyl)benzamido)pyrrolidin-1-yl)-2-oxoethoxy)phenyl)-2-phenylacetate] are 0.3 to 3 nM and 0.3 to 3 nM.
